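Five compound concentrations were applied to cells in 96-well plates for 48 hours; endpoints were derived by simple linear interpolation of the resulting dose-response curve. TGI marks complete inhibition of growth.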
Legend:
Assay in all cases: inhibition of tumour cell growth, NCI panel, 48 h
786-0 renal = system: 786-0 renal
A498 renal = system: A498 renal
A549 NSCLC = system: A549 NSCLC
ACHN renal = system: ACHN renal
CAKI-1 renal = system: CAKI-1 renal
CCRF-CEM leukemia = system: CCRF-CEM leukemia
COLO 205 colon = system: COLO 205 colon
DU-145 prostate = system: DU-145 prostate
EKVX NSCLC = system: EKVX NSCLC
HCC-2998 colon = system: HCC-2998 colon
HCT-116 colon = system: HCT-116 colon
HCT-15 colon = system: HCT-15 colon
HL-60(TB) leukemia = system: HL-60(TB) leukemia
HOP-62 NSCLC = system: HOP-62 NSCLC
HOP-92 NSCLC = system: HOP-92 NSCLC
HS 578T breast = system: HS 578T breast
HT29 colon = system: HT29 colon
IGROV1 ovarian = system: IGROV1 ovarian
K-562 leukemia = system: K-562 leukemia
KM12 colon = system: KM12 colon
LOX IMVI melanoma = system: LOX IMVI melanoma
M14 melanoma = system: M14 melanoma
MALME-3M melanoma = system: MALME-3M melanoma
MCF7 breast = system: MCF7 breast
MDA-MB-231 breast = system: MDA-MB-231 breast
MDA-MB-435 = system: MDA-MB-435
MDA-N = system: MDA-N
MOLT-4 leukemia = system: MOLT-4 leukemia
NCI-H226 lung = system: NCI-H226 lung
NCI-H23 lung = system: NCI-H23 lung
NCI-H522 lung = system: NCI-H522 lung
NCI/ADR-RES ovarian = system: NCI/ADR-RES ovarian
OVCAR-3 ovarian = system: OVCAR-3 ovarian
OVCAR-4 ovarian = system: OVCAR-4 ovarian
OVCAR-5 ovarian = system: OVCAR-5 ovarian
OVCAR-8 ovarian = system: OVCAR-8 ovarian
PC-3 prostate = system: PC-3 prostate
RPMI-8226 leukemia = system: RPMI-8226 leukemia
RXF 393 renal = system: RXF 393 renal
SF-268 CNS = system: SF-268 CNS
SF-295 CNS = system: SF-295 CNS
SF-539 CNS = system: SF-539 CNS
SK-MEL-2 melanoma = system: SK-MEL-2 melanoma
SK-MEL-28 melanoma = system: SK-MEL-28 melanoma
SK-MEL-5 melanoma = system: SK-MEL-5 melanoma
SK-OV-3 ovarian = system: SK-OV-3 ovarian
SN12C renal = system: SN12C renal
SNB-19 CNS = system: SNB-19 CNS
SNB-75 CNS = system: SNB-75 CNS
SW-620 colon = system: SW-620 colon
T-47D breast = system: T-47D breast
TK-10 renal = system: TK-10 renal
U251 CNS = system: U251 CNS
UACC-257 melanoma = system: UACC-257 melanoma
UO-31 renal = system: UO-31 renal
BT-549 breast = system: BT-549 breast
NCI-H460 lung = system: NCI-H460 lung
UACC-62 melanoma = system: UACC-62 melanoma

Measured: TGI

COc1ccc(/C=C2\N=C3Sc4c(nc[nH]c4=O)N3C2=O)cc1
not listed: BT-549 breast | NCI-H460 lung | UACC-62 melanoma
> 100 µM: all other assays above

NC(N)=NC(P(=O)(O)O)P(=O)(O)O
not listed: A498 renal | CCRF-CEM leukemia | HL-60(TB) leukemia | HOP-92 NSCLC | HT29 colon | K-562 leukemia | MDA-MB-435 | MOLT-4 leukemia | OVCAR-4 ovarian | OVCAR-8 ovarian | RPMI-8226 leukemia | SK-MEL-2 melanoma | SK-MEL-28 melanoma | SN12C renal | SNB-75 CNS | SW-620 colon | T-47D breast | U251 CNS
> 100 µM: all other assays above

Source: PubChem BioAssay (NCI)
